Results published in patent US8143243B2, “Compounds for the treatment of hepatitis C” (Bristol-Myers Squibb Company, priority 2007, dated 2012).

What was measured:
HCV NS5B = target: T1, HCV NS5B (Hepatitis C virus genotype 1b, UniProt Q9WMX2); experiment: HCV NS5B RdRp enzyme assay (standard / modified); assay type: biochemical; details: HCV RdRp genotype 1b enzyme; read-out: IC50
T1 construct: The protein was expressed with an 18 amino acid C-terminal truncation to enhance the solubility; made in house; host or cells: E. coli BL21 (DE3)
T1 sequence (Q9WMX2 2420-2992): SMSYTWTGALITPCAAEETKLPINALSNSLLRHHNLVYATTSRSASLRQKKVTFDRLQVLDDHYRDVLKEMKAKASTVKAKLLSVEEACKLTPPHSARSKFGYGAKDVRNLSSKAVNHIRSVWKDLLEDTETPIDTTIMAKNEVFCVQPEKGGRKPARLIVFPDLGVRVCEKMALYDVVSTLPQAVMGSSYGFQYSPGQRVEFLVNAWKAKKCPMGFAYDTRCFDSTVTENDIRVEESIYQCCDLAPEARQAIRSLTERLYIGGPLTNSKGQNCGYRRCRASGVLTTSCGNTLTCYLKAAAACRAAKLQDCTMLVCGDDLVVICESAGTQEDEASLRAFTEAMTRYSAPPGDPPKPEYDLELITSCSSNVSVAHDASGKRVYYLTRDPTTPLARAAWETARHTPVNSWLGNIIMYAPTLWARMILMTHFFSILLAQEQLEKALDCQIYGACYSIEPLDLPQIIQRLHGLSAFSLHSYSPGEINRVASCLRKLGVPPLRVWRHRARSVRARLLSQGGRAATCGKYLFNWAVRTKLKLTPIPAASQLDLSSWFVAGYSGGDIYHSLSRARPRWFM
Outline: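 NS5B genotype 1b, 18-aa C-terminal truncation, E. coli-expressed; polyA template with biotinylated oligo-dT12 primer, 3H-UTP 0.29 μM, 30° C, SPA read-out in 20 mM Hepes pH 7.5, 2% DMSO. Standard: 28 nM enzyme, 6 nM template, 180 nM primer, 60 min; modified: 14 nM enzyme, 0.2 nM template, 20 nM bead-precaptured primer, 4 h. IC50 from seven concentrations.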

HCV replicon cells = experiment: HCV replicon FRET / luciferase assay; assay type: cell-based; details: Hepatitis C virus; HCV replicon cells, FRET or luciferase readout; read-out: EC50
Outline: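 Replicon cells (with or without Renilla luciferase reporter) incubated with titrated compounds at 37 °C; Alamar blue read for cytotoxicity first. NS3 protease activity read kinetically with 20 μM EDANS/DABCYL FRET peptide in lysis reagent plus 150 mM NaCl (ex 340/em 490), or by Dual-Glo luciferase. EC50 = 50% signal reduction after protease-inhibitor background subtraction.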

COc1ccc2c(c1)C=C(c1ocnc1C(=O)N1CCOCC1)Cn1c-2c(C2CCCCC2)c2ccc(C(=O)O)cc21
IC50 (HCV NS5B): 1 to 500 nM
EC50 (HCV replicon cells): 1 to 500 nM

COc1ccc2c(c1)C=C(c1ocnc1C(=O)N1CCOCC1)Cn1c-2c(C2CCCCC2)c2ccc(C(=O)NS(=O)(=O)N(C)C)cc21
IC50 (HCV NS5B): 1 to 500 nM
EC50 (HCV replicon cells): 1 to 500 nM

COc1ccc2c(c1)C=C(c1ocnc1C(=O)N1CCOCC1)Cn1c-2c(C2CCCCC2)c2ccc(C(=O)NS(=O)(=O)C(C)C)cc21
IC50 (HCV NS5B): 1 to 500 nM
EC50 (HCV replicon cells): 1 to 500 nM

CCn1ncc(C(=O)N2CCN(C)CC2)c1C1=Cc2cc(OC)ccc2-c2c(C3CCCCC3)c3ccc(C(=O)NS(=O)(=O)N4CCCC4)cc3n2C1
IC50 (HCV NS5B): 1 to 500 nM
EC50 (HCV replicon cells): 1 to 500 nM

CCn1ncc(C(=O)N2CCN(C)CC2)c1C1=Cc2cc(OC)ccc2-c2c(C3CCCCC3)c3ccc(C(=O)NS(=O)(=O)N(C)C)cc3n2C1
IC50 (HCV NS5B): 1 to 500 nM
EC50 (HCV replicon cells): 1 to 500 nM

CCn1ncc(C(=O)N2CCOCC2)c1C1=Cc2cc(OC)ccc2-c2c(C3CCCCC3)c3ccc(C(=O)NS(=O)(=O)N4CCCC4)cc3n2C1
IC50 (HCV NS5B): 1 to 500 nM
EC50 (HCV replicon cells): 1 to 500 nM

COc1ccc2c(c1)C=C(c1c(C(=O)N3CCOCC3)cnn1CC(F)(F)F)Cn1c-2c(C2CCCCC2)c2ccc(C(=O)NS(=O)(=O)C(C)C)cc21
IC50 (HCV NS5B): 1 to 500 nM
EC50 (HCV replicon cells): 1 to 500 nM

COc1ccc2c(c1)C=C(c1c(C(=O)N3C[C@@H](C)O[C@@H](C)C3)cnn1CC(F)(F)F)Cn1c-2c(C2CCCCC2)c2ccc(C(=O)NS(=O)(=O)C(C)C)cc21
IC50 (HCV NS5B): 1 to 500 nM
EC50 (HCV replicon cells): 1 to 500 nM

COC[C@@H]1CN(C(=O)c2cnn(CC(F)(F)F)c2C2=Cc3cc(OC)ccc3-c3c(C4CCCCC4)c4ccc(C(=O)NS(=O)(=O)C(C)C)cc4n3C2)CCO1
IC50 (HCV NS5B): 1 to 500 nM
EC50 (HCV replicon cells): 1 to 500 nM

CCN1C[C@@H]2C[C@H]1CN2C(=O)c1cnn(CC(F)(F)F)c1C1=Cc2cc(OC)ccc2-c2c(C3CCCCC3)c3ccc(C(=O)NS(=O)(=O)C(C)C)cc3n2C1
IC50 (HCV NS5B): 1 to 500 nM
EC50 (HCV replicon cells): 1 to 500 nM

COc1ccc2c(c1)C=C(c1c(C(=O)N3C[C@@H](C)N(C)[C@@H](C)C3)cnn1CC(F)(F)F)Cn1c-2c(C2CCCCC2)c2ccc(C(=O)NS(=O)(=O)C(C)C)cc21
IC50 (HCV NS5B): 1 to 500 nM
EC50 (HCV replicon cells): 1 to 500 nM

COc1ccc2c(c1)C=C(c1c(C(=O)N3C[C@@H](C)O[C@@H](C)C3)c(C)nn1C)Cn1c-2c(C2CCCCC2)c2ccc(C(=O)NS(=O)(=O)C(C)C)cc21
IC50 (HCV NS5B): 1 to 500 nM
EC50 (HCV replicon cells): 1 to 500 nM

COc1ccc2c(c1)C=C(c1c(C(=O)N3CCOCC3)c(C(F)(F)F)nn1C)Cn1c-2c(C2CCCCC2)c2ccc(C(=O)NS(=O)(=O)C(C)C)cc21
IC50 (HCV NS5B): < 20 nM
EC50 (HCV replicon cells): 1 to 500 nM

COc1ccc2c(c1)C=C(c1c(C(=O)N3C[C@@H](C)O[C@@H](C)C3)c(C(F)(F)F)nn1C)Cn1c-2c(C2CCCCC2)c2ccc(C(=O)NS(=O)(=O)C(C)C)cc21
IC50 (HCV NS5B): < 20 nM
EC50 (HCV replicon cells): 1 to 500 nM

COc1ccc2c(c1)C=C(c1c(C(=O)N3C[C@@H](C)N(C)[C@@H](C)C3)c(C(F)(F)F)nn1C)Cn1c-2c(C2CCCCC2)c2ccc(C(=O)NS(=O)(=O)C(C)C)cc21
IC50 (HCV NS5B): 1 to 500 nM
EC50 (HCV replicon cells): 1 to 500 nM

COc1ccc2c(c1)C=C(c1occc1C(=O)N1CCOCC1)Cn1c-2c(C2CCCCC2)c2ccc(C(=O)NS(=O)(=O)C(C)C)cc21
IC50 (HCV NS5B): 1 to 500 nM
EC50 (HCV replicon cells): 1 to 500 nM

COc1ccc2c(c1)C=C(c1c(C(=O)N3C[C@@H](C)O[C@@H](C)C3)cnn1CC(C)C)Cn1c-2c(C2CCCCC2)c2ccc(C(=O)NS(=O)(=O)C(C)C)cc21
IC50 (HCV NS5B): 1 to 500 nM
EC50 (HCV replicon cells): 1 to 500 nM

COc1ccc2c(c1)C=C(c1c(C(=O)N3C[C@@H](C)O[C@@H](C)C3)cnn1C(C)(C)C)Cn1c-2c(C2CCCCC2)c2ccc(C(=O)NS(=O)(=O)C(C)C)cc21
IC50 (HCV NS5B): 1 to 500 nM
EC50 (HCV replicon cells): 1 to 500 nM

COc1ccc2c(c1)C=C(c1c(C(=O)N3C[C@@H](C)N(C)[C@@H](C)C3)cnn1C(C)(C)C)Cn1c-2c(C2CCCCC2)c2ccc(C(=O)NS(=O)(=O)C(C)C)cc21
IC50 (HCV NS5B): 1 to 500 nM
EC50 (HCV replicon cells): 1 to 500 nM

COc1ccc2c(c1)C=C(c1c(C(=O)N3CC4CCC(C3)O4)cnn1C)Cn1c-2c(C2CCCCC2)c2ccc(C(=O)NS(=O)(=O)C(C)C)cc21
IC50 (HCV NS5B): < 20 nM
EC50 (HCV replicon cells): 1 to 500 nM

COc1ccc2c(c1)C=C(c1c(C(=O)N3CC4CCC(C3)O4)c(C(F)(F)F)nn1C)Cn1c-2c(C2CCCCC2)c2ccc(C(=O)NS(=O)(=O)C(C)C)cc21
IC50 (HCV NS5B): 1 to 500 nM
EC50 (HCV replicon cells): 1 to 500 nM

COC[C@@H]1CN(C(=O)c2c(C(F)(F)F)nn(C)c2C2=Cc3cc(OC)ccc3-c3c(C4CCCCC4)c4ccc(C(=O)NS(=O)(=O)C(C)C)cc4n3C2)CCO1
IC50 (HCV NS5B): 1 to 500 nM
EC50 (HCV replicon cells): 1 to 500 nM

COc1ccc2c(c1)C=C(c1c(C(=O)N3CCN(C)CC3)c(C(F)(F)F)nn1C)Cn1c-2c(C2CCCCC2)c2ccc(C(=O)NS(=O)(=O)C(C)C)cc21
IC50 (HCV NS5B): 1 to 500 nM
EC50 (HCV replicon cells): 1 to 500 nM

CCN1C[C@@H]2C[C@H]1CN2C(=O)c1c(C(F)(F)F)nn(C)c1C1=Cc2cc(OC)ccc2-c2c(C3CCCCC3)c3ccc(C(=O)NS(=O)(=O)C(C)C)cc3n2C1
IC50 (HCV NS5B): 1 to 500 nM
EC50 (HCV replicon cells): 1 to 500 nM

COc1ccc2c(c1)C=C(c1c(C(=O)N3CCOCC3)c(C)nn1C(C)C)Cn1c-2c(C2CCCCC2)c2ccc(C(=O)NS(=O)(=O)C(C)C)cc21
IC50 (HCV NS5B): 1 to 500 nM
EC50 (HCV replicon cells): 1 to 500 nM

COc1ccc2c(c1)C=C(c1c(C(=O)N3C[C@@H](C)O[C@@H](C)C3)c(C)nn1C(C)C)Cn1c-2c(C2CCCCC2)c2ccc(C(=O)NS(=O)(=O)C(C)C)cc21
IC50 (HCV NS5B): 1 to 500 nM
EC50 (HCV replicon cells): 1 to 500 nM

COc1ccc2c(c1)C=C(c1c(C(=O)N3CCN(C)CC3)c(C)nn1C(C)C)Cn1c-2c(C2CCCCC2)c2ccc(C(=O)NS(=O)(=O)C(C)C)cc21
IC50 (HCV NS5B): 1 to 500 nM
EC50 (HCV replicon cells): 1 to 500 nM

COc1ccc2c(c1)C=C(c1c(C(=O)N3C[C@@H](C)N(C)[C@@H](C)C3)c(C)nn1C(C)C)Cn1c-2c(C2CCCCC2)c2ccc(C(=O)NS(=O)(=O)C(C)C)cc21
IC50 (HCV NS5B): 1 to 500 nM
EC50 (HCV replicon cells): 1 to 500 nM

CCn1nc(C)c(C(=O)OC)c1C1=Cc2cc(OC)ccc2-c2c(C3CCCCC3)c3ccc(C(=O)O)cc3n2C1
IC50 (HCV NS5B): > 500 nM
EC50 (HCV replicon cells): > 500 nM

CCn1nc(C)c(C(=O)N2CC3CCC(C2)O3)c1C1=Cc2cc(OC)ccc2-c2c(C3CCCCC3)c3ccc(C(=O)NS(=O)(=O)C(C)C)cc3n2C1
IC50 (HCV NS5B): 1 to 500 nM
EC50 (HCV replicon cells): 1 to 500 nM

COc1ccc2c(c1)C=C(c1c(C(=O)N3CC4CCC(C3)O4)c(C)nn1C)Cn1c-2c(C2CCCCC2)c2ccc(C(=O)NS(=O)(=O)C(C)C)cc21
IC50 (HCV NS5B): 1 to 500 nM
EC50 (HCV replicon cells): 1 to 500 nM

COc1ccc2c(c1)C=C(c1c(C(=O)N3C[C@@H](C)N(C)[C@@H](C)C3)c(C)nn1C)Cn1c-2c(C2CCCCC2)c2ccc(C(=O)NS(=O)(=O)C(C)C)cc21
IC50 (HCV NS5B): 1 to 500 nM
EC50 (HCV replicon cells): 1 to 500 nM

CCn1nc(C)c(C2=Cc3cc(OC)ccc3-c3c(C4CCCCC4)c4ccc(C(=O)NS(=O)(=O)C(C)C)cc4n3C2)c1C(=O)N1C[C@@H](C)O[C@@H](C)C1
IC50 (HCV NS5B): 1 to 500 nM
EC50 (HCV replicon cells): 1 to 500 nM

CCn1ncc(C(=O)N2CCO[C@@H](COC)C2)c1C1=Cc2cc(OC)ccc2-c2c(C3CCCCC3)c3ccc(C(=O)NS(=O)(=O)C(C)C)cc3n2C1
IC50 (HCV NS5B): 1 to 500 nM
EC50 (HCV replicon cells): 1 to 500 nM

CCn1ncc(C(=O)N2C[C@@H]3C[C@H]2CO3)c1C1=Cc2cc(OC)ccc2-c2c(C3CCCCC3)c3ccc(C(=O)NS(=O)(=O)C(C)C)cc3n2C1
IC50 (HCV NS5B): 1 to 500 nM
EC50 (HCV replicon cells): 1 to 500 nM

CCN1C[C@@H]2C[C@H]1CN2C(=O)c1cnn(CC)c1C1=Cc2cc(OC)ccc2-c2c(C3CCCCC3)c3ccc(C(=O)NS(=O)(=O)C(C)C)cc3n2C1
IC50 (HCV NS5B): 1 to 500 nM
EC50 (HCV replicon cells): 1 to 500 nM

COc1ccc2c(c1)C=C(c1c(C(=O)N3C[C@@H]4C[C@H]3CO4)cnn1CC(F)(F)F)Cn1c-2c(C2CCCCC2)c2ccc(C(=O)NS(=O)(=O)C(C)C)cc21
IC50 (HCV NS5B): 1 to 500 nM
EC50 (HCV replicon cells): 1 to 500 nM

COc1ccc2c(c1)C=C(c1c(C(=O)N3CC4CCC(C3)O4)cnn1C(C)C)Cn1c-2c(C2CCCCC2)c2ccc(C(=O)NS(=O)(=O)C(C)C)cc21
IC50 (HCV NS5B): 1 to 500 nM
EC50 (HCV replicon cells): 1 to 500 nM

COc1ccc2c(c1)C=C(c1c(C(=O)N3C[C@@H]4C[C@H]3CO4)cnn1C(C)C)Cn1c-2c(C2CCCCC2)c2ccc(C(=O)NS(=O)(=O)C(C)C)cc21
IC50 (HCV NS5B): 1 to 500 nM
EC50 (HCV replicon cells): 1 to 500 nM

COc1ccc2c(c1)C=C(c1c(C(=O)N3C[C@@H]4C[C@H]3CO4)c(C)nn1C(C)C)Cn1c-2c(C2CCCCC2)c2ccc(C(=O)NS(=O)(=O)C(C)C)cc21
IC50 (HCV NS5B): 1 to 500 nM
EC50 (HCV replicon cells): 1 to 500 nM

CCN1C[C@@H]2C[C@H]1CN2C(=O)c1c(C)nn(C(C)C)c1C1=Cc2cc(OC)ccc2-c2c(C3CCCCC3)c3ccc(C(=O)NS(=O)(=O)C(C)C)cc3n2C1
IC50 (HCV NS5B): 1 to 500 nM
EC50 (HCV replicon cells): 1 to 500 nM
